Holding throughout (format): biochemical
Assay [1] addresses GGTase I (substrate K-Ras4B) (Homo sapiens, UniProt P49354+P53609). The experiment in a line: GGTase I filter-binding assay with K-Ras4B as substrate. The settings on record: read-out: % activity of GGTase I for protein K-Ras4B in the presence of the compound. On the procedure:
(§1) The pilot library was screened for inhibitors of protein geranylgeranyltransferase type I. Protein prenyltransferase assays were carried out by using filter binding. Two different substrates, RhoA and K-Ras4B, were used for the assay. RhoA ends with the CaaL motif and is an exclusive substrate for GGTase I, while K-Ras4B ends with the CaaX motif and is modified by both GGTase I and FTase.
(§2) The % activity of GGTase I was determined as follows: a working solution that contained each compound in DMSO at the concentration of 1 mM was prepared. The working solution was added to GGTase I reaction mixture so that the final concentration of the compound is 50 μM. GGTase I activity was assayed by incubating [^3H]GGPP with K-Ras4B or RhoA protein in the presence of GGTase I and examining radioactivity incorporated into the substrate protein by spotting onto a filter paper. After washing with TCA, ethanol and acetone, the radioactivity retained on the filter was determined by the use of a scintillation counter. GGTase I activity in the presence of DMSO was taken as a 100% value and the activity in the presence of the compound was shown as percent activity compared with the 100% value. […] For 6-aryl-4-mercapto-N-sulfonyl-piperidine-3-carboxylic acid 11 the 4-mercapto substituent appeared critical to endowing GGTase inhibitory activity. […] 4-Chlorobenzylthio substituent was the next best; 12 compounds out of 21 containing the 4-chlorobenzylthio moiety were active. 4-Benzylthio substituent was also good; 7 piperidines out of 21 bearing 4-benzylthio group were active. […] 19 imines (C15>C12=C41>C40>C01=C11>C05=C10=C30=C35=C37=C38>C02, C03, C04, C06, C39=C43) out of 21 appeared in the GGTIs. […] This corresponds to 47 6-aryl-4-mercapto-N-sulfonyl-piperidine-3-carboxylic acids out of 357 compounds.
(§3) A collection of 138 heterocycles was screened for their ability to inhibit the activity of human GGTase-I to geranylgeranylate K-Ras4B or RhoA. Purified GGTase-1 was incubated with its substrate protein K-Ras4B or RhoA, [^3H]GGPP, and the 138 compounds. After 30 min, the degree of incorporation of tritiated geranylgeranyl groups was measured using a scintillation counter.

The target in assay [2] is GGTase I (substrate RhoA) (Homo sapiens, UniProt P49354+P53609). The experiment in a line: GGTase I filter-binding assay with RhoA as substrate. The settings on record: for activity at 50 µM: read-out: % activity of GGTase I for protein RhoA in the presence of the compound; for IC50: FIG. 15, read-out: IC50 for the inhibition of GGTase I using RhoA as a substrate. On the procedure:
as §1, §2, §3
The GGTase-I assay was carried out using RhoA as a substrate protein, GGTase-I (JENA Bioscience) and [3H]geranylgeranyl pyrophosphate. Incubation was for 30 min at 37 C. GGTase-H (or RabGGTase) assay was carried out using YPT1 as a substrate protein, GGTase-H (Calbiochem, San Diego, Calif.) plus REP1 (Calbiochem) and [3H]geranylgeranyl pyrophosphate. Incubation was for 30 min at 37 C. FIGS. 20D-20F show the three dimensional structure of GGTase I (D), FTsse (E) and GGTase II (F) which can be obtained from X-ray diffraction studies of protein crystals.

Assay [3] deals with T1, protein farnesyltransferase (FTase) (Rattus norvegicus, UniProt Q02293+Q04631).
T1 construct: purchased JENA Bioscience
As to the kind of experiment: Protein farnesyltransferase assay with K-Ras4B and [3H]FPP. The note with it: FIG. 16; concentration increased to 100 μM. From the text:
To further characterize the pilot library, inhibitors of protein farnesyltransferase were identified. This was accomplished by using K-Ras4B as a substrate protein, tritiated farnesylpyrophosphate ([^3H]FPP) and protein farnesyltransferase. See Finegold, A. A., Johnson, D. I., Farnsworth, C. C., Gelb, M. H., Judd, S. R., Glomset, J. A. and Tamanoi, F. (1991) Protein geranylgeranyltransferase of Saccharomyces cerevisiae is specific for Cys-Xaa-Xaa-Leu motif and requires the CDC43 gene product but not the DPRI gene product. Proc. Natl. Acad. Sci. USA 88, 4448-4452. […] On the other hand, the structure of the compounds P1-F11, P2-B7 and P2-E9 resemble those of GGTIs. The FTI P1-F11 resembles the GGTI P1-F10, while the FTI P2-B7 resembles the GGTI P2-C10. The FTI P2-E9 is similar to the GGTI P2-G3. Similarity of some GGTI and FTI compounds may point to common structural features between the two closely related enzymes. As described before, FTase and GGTase I have similar three-dimensional structures and a shared alpha subunit. On the other hand, FTase specific inhibitors may recognize a region(s) that is different between the two enzymes.
Varying concentrations of the two compounds were added to each enzyme reaction. The FTase (protein farnesyltransferase) assay was carried out using K-Ras4B as a substrate protein, FTase (JENA Bioscience, San Diego, Calif.) and […] pyrophosphate. Incubation was for 30 min at 37 C.

The target of another assay is GGTase I (Homo sapiens, UniProt P49354+P53609). As to the kind of experiment: GGTase I assay, substrate not specified or K-Ras4B and RhoA compared. The settings on record: for inhibition of GGTase I: FIG. 16; for substrate preference of GGTase I inhibition (RhoA vs K-Ras4B), known GGTIs: FIG. 17; for GGTI activity in screen of 138 heterocycles: K-Ras4B or RhoA substrate, 30 min. On the procedure: as §1, §2, §3

[4] abbreviates: 50 μM compound, DMSO = 100%, smaller numbers indicate better inhibition, first number of pair.
[5] abbreviates: 50 μM compound, DMSO = 100%, smaller numbers indicate better inhibition, second number of pair.

Where two headings read alike, the source gives them in different places.

From patent US8093274B2, “Inhibitors of protein prenyltransferases” (The Regents of the University of California, priority 2006, dated 2012) come the findings set out here.

With `Cc1ccc(S(=O)(=O)N2[C@@H](c3cccc(F)c3)C(C(=O)O)=C[C@H]2C(C)(C)C)cc1`, the figures for the activity at 50 µM in assay [1] and in assay [2] were 23.7% and 9.1%, respectively.

In the case of `Cc1ccccc1S(=O)(=O)N1[C@@H](c2ccc(Cl)cc2)C(C(=O)O)=C[C@H]1CC1CCCC1`, the activity at 50 µM turned out to be 23.7% in assay [1] and 9.1% in assay [2].

Turning to `Cc1ccc(S(=O)(=O)N2C(c3ccc(Cl)c(Cl)c3)CC=C(C(=O)O)[C@@H]2c2cccc(Br)c2)cc1` (stereo partly drawn), the activity at 50 µM was 8.6% in assay [1] and 3.2% in assay [2].

On to `Cc1ccc(S(=O)(=O)N2C(c3ccc(Cl)c(Cl)c3)CC=C(C(=O)O)[C@@H]2c2cccc(Cl)c2)cc1` (stereo partly drawn), for which the activity at 50 µM in assay [1] worked out at 10.7%; in assay [2] it was 4.5%.

With `Cc1ccccc1S(=O)(=O)N1C(c2ccc(Cl)cc2)CC=C(C(=O)O)[C@@H]1c1ccccc1` (stereo partly drawn), the activity at 50 µM in assay [1] turned out to be 13.4%; in assay [2], 5.8%.

With `Cc1ccc(S(=O)(=O)N2C(c3ccc(Cl)c(Cl)c3)CC=C(C(=O)O)[C@@H]2c2ccc(Br)cc2)cc1` (stereo partly drawn), the activity at 50 µM in assay [1] turned out to be 18.7%; in assay [2], 11.3%.

Take `C=CCS[C@H]1[C@@H](C(=O)O)[C@H](c2cccc(F)c2)N(S(=O)(=O)c2ccc(C)cc2)[C@@H]1CC1CCCC1`: the results for the activity at 50 µM in assay [1] (setting [4]) and in assay [2] (setting [5]) were 30.4% and 9.7%, respectively.

Take `CCC[C@@H]1[C@@H](SCCC(=O)OC(C)(C)C)[C@@H](C(=O)O)[C@H](c2cccc(F)c2)N1S(=O)(=O)c1ccc(C)cc1`: the activity at 50 µM in assay [1] (setting [4]) was 20.2%; in assay [2] (setting [5]), 7.8%.

As for `CCCC[C@@H]1[C@@H](Sc2ccc(OC)cc2)[C@@H](C(=O)O)[C@H](c2cccc(F)c2)N1S(=O)(=O)c1ccc(C)cc1`, the figures for the activity at 50 µM in assay [1] (setting [4]) and in assay [2] (setting [5]) were 27.4% and 3.5%, respectively.

With `Cc1ccc(S(=O)(=O)N2[C@H](CC3CCCC3)[C@@H](SCCC(=O)OC(C)(C)C)[C@@H](C(=O)O)[C@@H]2c2cccc(F)c2)cc1`, the activity at 50 µM in assay [1] (setting [4]) amounted to 31.9%; in assay [2] (setting [5]), 8.2%.

For the compound `C=CCS[C@H]1[C@@H](C(=O)O)[C@H](c2ccc(OC)c(OC)c2)N(S(=O)(=O)c2ccc(C)cc2)[C@@H]1CCCCCC`, the activity at 50 µM in assay [1] (setting [4]) is 22.3%; in assay [2] (setting [5]), 8.1%.

As to `C=CCS[C@H]1[C@@H](C(=O)O)[C@H](c2ccc(Cl)cc2)N(S(=O)(=O)c2ccc(C)cc2)[C@@H]1CC1CCCC1`, the values for the activity at 50 µM in assay [1] (setting [4]) and in assay [2] (setting [5]) were 25.2% and 7.7%, respectively.

As for `C=CCS[C@H]1[C@@H](C(=O)O)[C@H](c2ccc(C(C)C)cc2)N(S(=O)(=O)c2ccc(C)cc2)[C@@H]1CC1CCCC1`, the activity at 50 µM is 31.7% in assay [1] (setting [4]) and 6.1% in assay [2] (setting [5]).

Take `CCC[C@@H]1[C@@H](Sc2ccc(C)cc2)[C@@H](C(=O)O)[C@H](c2cccc(F)c2)N1S(=O)(=O)c1ccc(C)cc1`: the activity at 50 µM in assay [1] (setting [4]) is 14.7%; in assay [2] (setting [5]) it was 4.1%.

In the case of `CCCCCS[C@H]1[C@@H](C(=O)O)[C@H](c2cccc(F)c2)N(S(=O)(=O)c2ccc(C)cc2)[C@@H]1CCCC`, the activity at 50 µM in assay [1] (setting [4]) is 23.5%; in assay [2] (setting [5]) it was 7.1%.

Consider `CCCC[C@@H]1[C@@H](Sc2ccc(C)cc2)[C@@H](C(=O)O)[C@H](c2cccc(F)c2)N1S(=O)(=O)c1ccc(C)cc1`, for which the activity at 50 µM in assay [1] (setting [4]) was determined as 31.5%; in assay [2] (setting [5]), 7.1%.

In the case of `CCCCCC[C@@H]1[C@@H](Sc2ccc(C)cc2)[C@@H](C(=O)O)[C@H](c2ccc(Cl)c(Cl)c2)N1S(=O)(=O)c1ccc(C)cc1`, the activity at 50 µM turned out to be 21.3% in assay [1] (setting [4]) and 9.2% in assay [2] (setting [5]).

With `CCCCCC[C@@H]1[C@@H](Sc2ccc(C)cc2)[C@@H](C(=O)O)[C@H](c2ccc(Cl)cc2)N1S(=O)(=O)c1ccccc1`, the activity at 50 µM in assay [1] (setting [4]) is 15%; in assay [2] (setting [5]), 7.5%.

With `CC(C)CCS[C@H]1[C@@H](C(=O)O)[C@H](c2ccc(Cl)cc2)N(S(=O)(=O)c2ccccc2)[C@@H]1C(C)C`, the results for the activity at 50 µM in assay [1] (setting [4]) and in assay [2] (setting [5]) were 28.1% and 5.9%, respectively.

For `CCCCCC[C@@H]1[C@@H](SC2CCCC2)[C@@H](C(=O)O)[C@H](c2ccc(C#N)cc2)N1S(=O)(=O)c1ccc(C)cc1`, the activity at 50 µM in assay [1] (setting [4]) turned out to be 20.1%; in assay [2] (setting [5]) it was 7.4%.

As for `Cn1cncc1CN1C[C@@H](Cc2ccccc2)N(S(=O)(=O)c2cccs2)Cc2cc(C#N)ccc21` [BMS225975, reference compound], the “inhibition of FTase activity” value in assay [3] was “inhibits FTase”. At GGTase I, the “inhibition of GGTase I” value is “does not inhibit GGTase I”.

Broadly, the IC50 is the concentration that inhibits the measured activity by half. In the case of `COC(=O)[C@H](CC(C)C)NC(=O)c1ccc(NC[C@@H](N)CS)cc1-c1cccc2ccccc12` [GGTI-298, reference compound], in assay [3], the “inhibition of FTase activity” value is “little inhibition was observed with FTase”. The IC50 in assay [2] came out at 1.6 µM. Moreover, at GGTase I, the “inhibition of GGTase I” value is “inhibits GGTase I” and the “substrate preference of GGTase I inhibition (RhoA vs K-Ras4B), known GGTIs” value is “inhibit RhoA-driven GGTase I activity slightly better than K-Ras4B-driven GGTase I activity”.

Turning to `COC(=O)C(CC(C)C)NC(=O)c1ccc(NCc2cnc[nH]2)cc1-c1ccccc1C` (stereo not drawn) [GGTI-2166, reference compound], in assay [2], the IC50 was determined as 0.5 µM. Besides, the “substrate preference of GGTase I inhibition (RhoA vs K-Ras4B), known GGTIs” value on GGTase I was “inhibit RhoA-driven GGTase I activity slightly better than K-Ras4B-driven GGTase I activity”.

For `O=C(O)C1=CCC(c2ccc(Cl)cc2)N(S(=O)(=O)c2ccc(Cl)cc2)[C@H]1c1cccc(Cl)c1` (stereo partly drawn) [P3-D9], the “inhibition of FTase activity” value in assay [3] is on record as “no inhibition of FTase activity was observed”. For the same compound, the values for the activity at 50 µM in assay [1] (setting [4]) and in assay [2] (setting [5]) were 33.1% and 26.7%, respectively. The IC50 in assay [2] stood at 5 µM.

Consider `CC[C@@H]1C=C(C(=O)O)[C@H](c2ccc(F)cc2)N1S(=O)(=O)c1ccc(C)cc1` [compound 1], for which the “GGTI activity in screen of 138 heterocycles” value at GGTase I is reported as “identified as GGTIs”.

`Cc1ccc(S(=O)(=O)N2[C@@H](c3ccccc3)C(C(=O)O)=CC[C@H]2c2ccc(F)cc2)cc1` [compound 2]: on GGTase I, the “GGTI activity in screen of 138 heterocycles” value is “identified as GGTIs”.
